From paper PMC6149824, “Design and Synthesis of New Benzothiazole Compounds as Selective hMAO-B Inhibitors” (Molecules : A Journal of Synthetic Chemistry and Natural …, 2017) come the findings set out here.

“Also recorded” adds a separate entry of the source.

One data set addresses T1, hMAO-B (Homo sapiens, UniProt P27338).
T1 sequence (P27338 1-520): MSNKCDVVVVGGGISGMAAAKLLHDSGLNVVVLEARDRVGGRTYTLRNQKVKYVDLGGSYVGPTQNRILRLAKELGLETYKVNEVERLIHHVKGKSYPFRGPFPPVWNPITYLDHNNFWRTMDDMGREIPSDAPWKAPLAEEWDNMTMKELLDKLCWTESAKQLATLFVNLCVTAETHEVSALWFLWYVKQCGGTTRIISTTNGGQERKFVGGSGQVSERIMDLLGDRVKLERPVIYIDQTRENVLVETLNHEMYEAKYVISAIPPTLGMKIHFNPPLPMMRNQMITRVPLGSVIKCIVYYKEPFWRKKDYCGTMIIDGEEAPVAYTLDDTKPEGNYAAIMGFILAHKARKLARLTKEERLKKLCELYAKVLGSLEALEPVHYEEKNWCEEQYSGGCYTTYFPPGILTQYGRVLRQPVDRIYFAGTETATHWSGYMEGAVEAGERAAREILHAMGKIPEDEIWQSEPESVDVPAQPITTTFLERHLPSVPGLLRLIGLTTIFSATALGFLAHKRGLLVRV
Kind of data set: in vitro fluorometric hMAO-B inhibition assay (Amplex Red). The data set is classed as biochemical. The method, then: The method was performed in two steps, as previously described.
An enzyme inhibition assay was performed according to our recent study. […] After the incubation period, the reaction was started by adding a working solution (100 μL/well) ([…] Amplex Red reagent, 1 U/mL horseradish peroxidase and 1 mM p-tyramine) and all pipetting processes were performed using a Biotek Precision XS robotic system (BioTek Instruments, Winooski, VT, USA).
Control experiments were carried out simultaneously by replacing the inhibitor solution with 2% DMSO (20 μL). In order to check the probable inhibitory effect of inhibitors on horseradish peroxidase, a parallel reading was achieved by replacing enzyme solutions with 3% H2O2 solution (20 mM 100 μL/well). In addition, the probable capacity of the inhibitors to modify the fluorescence generated in the reaction mixture due to non-enzymatic inhibition was determined by mixing inhibitor and working solutions.
The specific fluorescence emission (used to obtain the final results) was calculated after subtraction of the background activity, which was determined from vials containing all components except the hMAO isoforms, which were replaced by phosphate buffer (100 μL/well). Blank, control and all concentrations of inhibitors were analyzed in quadruplicate and inhibition percent was calculated by using following equation: % Inhibition=(FCt2−FCt1)−(FIt2−FIt1)/FCt2−FCt1×100 where FCt2 is the fluorescence of a control well measured at t2 time; FCt1 is the fluorescence of a control well measured at t1 time; FIt2 is the fluorescence of an inhibitor well measured at t2 time; and FIt1 is the fluorescence of an inhibitor well measured at t1 time.
The IC50 values were calculated from a dose-response curve obtained by plotting the percentage inhibition versus the log concentration with the use of GraphPad PRISM software (version 5.0, GraphPad Software Inc., La Jolla, CA, USA).

The subject of data set [1] is NIH/3T3 mouse embryonic fibroblast cell line. In words: cytotoxicity test (MTT) on NIH/3T3 cells. The data set is classed as cell-based. The method, then: (§1) The healthy NIH/3T3 mouse embryonic fibroblast cell line (ATCC CRL1658), proposed by ISO (10993-5, 2009) for preliminary cytotoxicity screening of drug candidates, was used to evaluate the cytotoxicity of compound 3e. The IC50 value of the compound 3e is represented in Table 3.
(§2) NIH/3T3 mouse embryonic fibroblast cell line (ATCC® CRL-1658™, London, UK) was used in the cytotoxicity test and, initially, NIH/3T3 cells were incubated in Dulbecco’s Modified Eagle’s Medium (DMEM). NIH/3T3 cells were added to 96-well culture plates (10,000 cells/well). Synthesized compounds and reference agents were added to the 96-well culture plates at various concentrations ranging from 1000 µM to 0.316 µM. MTT assay was performed as previously described. Dose-response curves were plotted against compound concentrations applied to determine IC50 values.

Data set [2] is described as follows: cytotoxicity test (MTT) on NIH/3T3 cells. It counts as cell-based, mouse. The conditions noted are these: mouse, NIH/3T3 mouse embryonic fibroblast cells (ATCC CRL-1658); MTT assay, 1000 µM to 0.316 µM; read-out: IC50 (cytotoxic activity against NIH/3T3 cell line). The method, then: as §1, §2
Background: Tetrazolium assays rely on reduction of a dye to a coloured formazan, in cell work by metabolically active cells.

Turning to `COc1ccc2sc(SCC(=O)NN=Cc3ccc([N+](=O)[O-])s3)nc2c1` [Compound 3e, 2-((5-Methoxybenzothiazol-2-yl)thio)-N′-((5-nitrothiophen-2-yl)methylene)acetohydrazide], the melting point (in general, the temperature of the solid-liquid transition) fell in the range of 177.2 to 178.6 °C. The inhibition – broadly, how much of the control response was suppressed – at 1000 µM on hMAO-B (10^−3 M, read-out: MAO B Inhibition %) worked out at 87.3%. The “inhibition against hMAO-B (first screening step)” value against hMAO-B (10^−3 and 10^−4 M) is listed as “more than 50%”. For the same molecule, the inhibition at 100 µM at hMAO-B (10^−4 M, read-out: MAO B Inhibition %) worked out at 83.5%. In addition, the IC50 at hMAO-B (concentrations of 10^−5–10^−9 M, mean ± SD, read-out: MAO B IC50) was determined as 0.06 ± 0.002 µM. Moreover, the “fold IC50 against NIH/3T3 higher than IC50 against hMAO-B” value in data set [1] (IC50 NIH/3T3 vs IC50 hMAO-B) is given as “ca. 300 fold”. Further, the “cytotoxicity (in words)” value in data set [1] (NIH/3T3, at its effective concentration) is recorded as “not cytotoxic; also recorded: non-cytotoxic”. Also, the IC50 in data set [2] was found to be 19 ± 1.03 µM.
